# According to PubChem BioAssay (NCI):
#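 Method: 48-hour compound exposure of cells in 96-well plates, five concentrations, linear interpolation of endpoints. GI50 marks 50% less growth. TGI marks complete inhibition of growth.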
# Experiments:
# Experiment in all cases: growth of human tumour cells (NCI), 48 h
# DU-145 prostate = test system: DU-145 prostate
# U251 CNS = test system: U251 CNS
# NCI/ADR-RES ovarian = test system: NCI/ADR-RES ovarian
# SN12C renal = test system: SN12C renal
# BT-549 breast = test system: BT-549 breast
# HCC-2998 colon = test system: HCC-2998 colon
# RPMI-8226 leukemia = test system: RPMI-8226 leukemia
# M14 melanoma = test system: M14 melanoma
# SNB-75 CNS = test system: SNB-75 CNS
# UACC-62 melanoma = test system: UACC-62 melanoma
# UACC-257 melanoma = test system: UACC-257 melanoma
# HOP-62 NSCLC = test system: HOP-62 NSCLC
# MALME-3M melanoma = test system: MALME-3M melanoma
# NCI-H23 lung = test system: NCI-H23 lung
# LOX IMVI melanoma = test system: LOX IMVI melanoma
# CCRF-CEM leukemia = test system: CCRF-CEM leukemia
# MOLT-4 leukemia = test system: MOLT-4 leukemia
# SK-MEL-5 melanoma = test system: SK-MEL-5 melanoma
# OVCAR-8 ovarian = test system: OVCAR-8 ovarian
# MDA-MB-231 breast = test system: MDA-MB-231 breast
# HL-60(TB) leukemia = test system: HL-60(TB) leukemia
# NCI-H522 lung = test system: NCI-H522 lung
# ACHN renal = test system: ACHN renal
# T-47D breast = test system: T-47D breast
# EKVX NSCLC = test system: EKVX NSCLC
# OVCAR-5 ovarian = test system: OVCAR-5 ovarian
# HOP-92 NSCLC = test system: HOP-92 NSCLC
# CAKI-1 renal = test system: CAKI-1 renal
# KM12 colon = test system: KM12 colon
structure (smiles),measurement,setting,value
O=S(=O)(Nc1ccc(Cl)c(F)c1)c1ccc(-c2cnc(C3CC3)o2)cc1,GI50,DU-145 prostate,1650 nM
same,TGI,DU-145 prostate,14700 nM
same,GI50,U251 CNS,448 nM
same,TGI,U251 CNS,14400 nM
same,GI50,NCI/ADR-RES ovarian,369 nM
same,TGI,NCI/ADR-RES ovarian,7560 nM
same,GI50,SN12C renal,808 nM
same,TGI,SN12C renal,14400 nM
same,GI50,BT-549 breast,515 nM
same,TGI,BT-549 breast,15400 nM
same,GI50,HCC-2998 colon,1720 nM
same,TGI,HCC-2998 colon,12300 nM
same,GI50,RPMI-8226 leukemia,531 nM
same,TGI,RPMI-8226 leukemia,> 53400 nM
same,GI50,M14 melanoma,328 nM
same,TGI,M14 melanoma,12900 nM
same,GI50,SNB-75 CNS,172 nM
same,TGI,SNB-75 CNS,692 nM
same,GI50,UACC-62 melanoma,281 nM
same,TGI,UACC-62 melanoma,8000 nM
same,GI50,UACC-257 melanoma,1350 nM
same,TGI,UACC-257 melanoma,18200 nM
same,GI50,HOP-62 NSCLC,579 nM
same,TGI,HOP-62 NSCLC,17600 nM
same,GI50,MALME-3M melanoma,821 nM
same,TGI,MALME-3M melanoma,23400 nM
same,GI50,NCI-H23 lung,1190 nM
same,TGI,NCI-H23 lung,13500 nM
same,GI50,LOX IMVI melanoma,503 nM
same,TGI,LOX IMVI melanoma,19100 nM
same,GI50,CCRF-CEM leukemia,382 nM
same,TGI,CCRF-CEM leukemia,21500 nM
same,GI50,MOLT-4 leukemia,614 nM
same,TGI,MOLT-4 leukemia,25000 nM
same,GI50,SK-MEL-5 melanoma,511 nM
same,TGI,SK-MEL-5 melanoma,11100 nM
same,GI50,OVCAR-8 ovarian,1090 nM
same,TGI,OVCAR-8 ovarian,19800 nM
same,GI50,MDA-MB-231 breast,1060 nM
same,TGI,MDA-MB-231 breast,11500 nM
same,GI50,HL-60(TB) leukemia,313 nM
same,TGI,HL-60(TB) leukemia,3800 nM
same,GI50,NCI-H522 lung,192 nM
same,TGI,NCI-H522 lung,4420 nM
same,GI50,ACHN renal,622 nM
same,TGI,ACHN renal,15800 nM
same,GI50,T-47D breast,436 nM
same,TGI,T-47D breast,15600 nM
same,GI50,EKVX NSCLC,1050 nM
same,TGI,EKVX NSCLC,14800 nM
same,GI50,OVCAR-5 ovarian,1610 nM
same,TGI,OVCAR-5 ovarian,14500 nM
same,GI50,HOP-92 NSCLC,734 nM
same,TGI,HOP-92 NSCLC,6610 nM
same,GI50,CAKI-1 renal,360 nM
same,TGI,CAKI-1 renal,15200 nM
same,GI50,KM12 colon,379 nM
same,TGI,KM12 colon,13300 nM
